Experimental data from paper PMC9265530, “The Three Two-Pore Channel Subtypes from Rabbit Exhibit Distinct Sensitivity to Phosphoinositides, Voltage, and Extracytosolic pH” (Cells, 2022).

What was measured:
OcTPC3 [1] = target: T1, OcTPC3 (Oryctolagus cuniculus, UniProt B8Q2W0); experiment: inside-out patch clamp, tail current at […] mV after +[…] mV step; type: biochemical; conditions: agonist; relative to 1 µM PI(3,5)P2; 4-s step to +100 mV; pH 7.2
T1 construct: gene TPCN3; C-terminal EGFP fusion (pEGFP-N1), transient in HEK293; previously cloned cDNA; dimer
T1 sequence (B8Q2W0 1-766): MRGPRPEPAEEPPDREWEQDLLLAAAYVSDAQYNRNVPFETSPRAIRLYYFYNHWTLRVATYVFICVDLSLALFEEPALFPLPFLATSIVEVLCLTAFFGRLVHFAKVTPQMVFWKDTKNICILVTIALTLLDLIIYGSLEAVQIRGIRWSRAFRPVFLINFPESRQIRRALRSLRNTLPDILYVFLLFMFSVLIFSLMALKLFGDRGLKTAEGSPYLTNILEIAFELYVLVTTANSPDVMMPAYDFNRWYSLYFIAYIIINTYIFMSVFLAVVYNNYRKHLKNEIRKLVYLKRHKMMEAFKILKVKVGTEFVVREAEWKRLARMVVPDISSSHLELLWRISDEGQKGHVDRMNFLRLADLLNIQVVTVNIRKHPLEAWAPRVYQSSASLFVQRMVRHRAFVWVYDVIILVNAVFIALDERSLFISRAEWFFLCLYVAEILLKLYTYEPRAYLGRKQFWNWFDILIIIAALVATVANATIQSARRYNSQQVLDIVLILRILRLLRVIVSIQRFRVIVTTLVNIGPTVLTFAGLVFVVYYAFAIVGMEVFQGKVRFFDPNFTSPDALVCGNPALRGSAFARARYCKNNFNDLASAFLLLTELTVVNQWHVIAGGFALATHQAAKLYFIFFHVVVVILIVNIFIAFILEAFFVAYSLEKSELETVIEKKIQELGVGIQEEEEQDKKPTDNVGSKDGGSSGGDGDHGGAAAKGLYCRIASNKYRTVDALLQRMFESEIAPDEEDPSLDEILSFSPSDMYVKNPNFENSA

OcTPC2 [2] = target: T2, OcTPC2 (Oryctolagus cuniculus, UniProt Z9ZIB8IF81); experiment: whole-endolysosome patch clamp, current at -100 mV; type: biochemical; conditions: inhibitor; against 100 nM PI(3,5)P2; voltage ramps
T2 construct: full-length, C-terminal EGFP fusion (pEGFP-N1), transient in HEK293; cloned from rabbit kidney RNA; 749/753 residues match GBCT01193833.1; dimer

OcTPC2 [3] = target: T2, OcTPC2; experiment: whole-endolysosome patch clamp, current at -100 mV; type: cell-based; conditions: agonist; voltage ramps; vacuolin-1 enlarged vacuoles; cytoplasmic pH 7.2; room temperature; HEK293
OcTPC1 = tested on: T3, OcTPC1; experiment: inside-out patch clamp, current at -100 mV; type: cell-based, Oryctolagus cuniculus; conditions: agonist; voltage ramps; cytoplasmic pH 7.2; room temperature; HEK293
T3 construct: gene TPCN1; full-length, C-terminal EGFP fusion (pEGFP-N1), transient in HEK293; cloned from rabbit kidney RNA; 815/817 residues match XM_017349553.1; dimer

OcTPC3 [4] = target: T1, OcTPC3; experiment: inside-out patch clamp, tail current at […] mV after +[…] mV step; type: cell-based

Compound | % of PI(3,5)P2 response at 1 μM (OcTPC3 [1]) | further results
CCCCCCCC(=O)OC[C@H](COP(=O)(O)O[C@H]1[C@H](O)[C@@H](OP(=O)(O)O)[C@H](OP(=O)(O)O)[C@@H](OP(=O)(O)O)[C@H]1O)OC(=O)CCCCCCC [PI(3,4,5)P3] | 7.0 ± 2.0% | 
CCCCCCCC(=O)OC[C@H](COP(=O)(O)O[C@@H]1[C@H](O)[C@H](O)[C@@H](OP(=O)(O)O)[C@H](OP(=O)(O)O)[C@H]1O)OC(=O)CCCCCCC [PI(4,5)P2] | 9.0 ± 2.0% | % inhibition at 1 μM (OcTPC2 [2]): 67.6 ± 5.3%
CCCCCCCC(=O)OC[C@H](COP(=O)(O)O[C@@H]1[C@H](O)[C@H](OP(=O)(O)O)[C@@H](O)[C@H](O)[C@H]1O)OC(=O)CCCCCCC [PI3P] | 93.8 ± 5.1% | 
CCCCCCCC(=O)OC[C@H](COP(=O)(O)O[C@H]1[C@H](O)[C@@H](O)[C@H](OP(=O)(O)O)[C@@H](OP(=O)(O)O)[C@H]1O)OC(=O)CCCCCCC [PI(3,4)P2] | 29.9 ± 5.2% | 
CCCCCCCC(=O)OC[C@H](COP(=O)(O)O[C@@H]1[C@H](O)[C@H](OP(=O)(O)O)[C@@H](O)[C@H](OP(=O)(O)O)[C@H]1O)OC(=O)CCCCCCC [diC8 PI(3,5)P2] |  | EC50 (OcTPC2 [3]): 208 ± 8.1 nM; EC50 (OcTPC1): 26.3 ± 5 nM; EC50 (OcTPC3 [4]): 142 ± 0.2 nM
